Data published in ChEMBL document CHEMBL4002643, “Tubulin-binding dibenz[c,e]oxepines: Part 2. Structural variation and biological evaluation as tumour vasculature disrupting agents” (Bioorg Med Chem, 2017).
The source made the active and inactive calls. The rule behind the calls is not given here.

Key:
KM12 = assay: Cytotoxicity against human KM12 cells assessed as growth inhibition after 48 hrs by SRB assay; assay type: functional; settings: KM12, 48 h
MDA-MB-231 = assay: Cytotoxicity against human MDA-MB-231 cells assessed as growth inhibition after 48 hrs by SRB assay; assay type: functional; settings: MDA-MB-231, 48 h
TK-10 = assay: Cytotoxicity against human TK10 cells assessed as growth inhibition after 48 hrs by SRB assay; assay type: functional; settings: TK-10, 48 h
HCT-15 = assay: Cytotoxicity against human HCT15 cells assessed as growth inhibition after 48 hrs by SRB assay; assay type: functional; settings: HCT-15, 48 h
NCI/ADR-RES = assay: Cytotoxicity against human NCI-ADR-RES cells assessed as growth inhibition after 48 hrs by SRB assay; assay type: functional
DU-145 = assay: Cytotoxicity against human DU145 cells assessed as growth inhibition after 48 hrs by SRB assay; assay type: functional; settings: DU-145, 48 h
NCI-H522 = assay: Cytotoxicity against human NCI-H522 cells assessed as growth inhibition after 48 hrs by SRB assay; assay type: functional; settings: NCI-H522, 48 h
HOP-92 = assay: Cytotoxicity against human HOP92 cells assessed as growth inhibition after 48 hrs by SRB assay; assay type: functional; settings: HOP-92, 48 h
RPMI-8226 = assay: Cytotoxicity against human RPMI8226 cells assessed as growth inhibition after 48 hrs by SRB assay; assay type: functional; settings: RPMI-8226, 48 h
CAKI-1 = assay: Cytotoxicity against human Caki1 cells assessed as growth inhibition after 48 hrs by SRB assay; assay type: functional; settings: CAKI-1, 48 h
NCI-H23 = assay: Cytotoxicity against human NCI-H23 cells assessed as growth inhibition after 48 hrs by SRB assay; assay type: functional; settings: NCI-H23, 48 h
EKVX = assay: Cytotoxicity against human EKVX cells assessed as growth inhibition after 48 hrs by SRB assay; assay type: functional
Malme-3M = assay: Cytotoxicity against human MALME-3M cells assessed as growth inhibition after 48 hrs by SRB assay; assay type: functional
DLD-1 [1] = assay: Vascular disrupting activity in human DLD1 cells xenografted in Balb/C immunodeficient nude mouse assessed as induction of necrosis by measuring necrotic area at 400 mg/kg, iv at 4 hrs post dose by haematoxylin and eosin staining-based assay (reference value: 19 +/- 9.6%); assay type: functional
DLD-1 [2] = assay: Vascular disrupting activity in human DLD1 cells xenografted in Balb/C immunodeficient nude mouse assessed as induction of necrosis by measuring necrotic area at 400 mg/kg, iv at 24 hrs post dose by haematoxylin and eosin staining-based assay (reference value: 19 +/- 9.6%); assay type: functional
DLD-1 [3] = assay: Induction of vascular shutdown in human DLD1 cells xenografted in Balb/C immunodeficient nude mouse assessed as vascular element counts at 400 mg/kg, iv at 1 hr post dose by […] dye-based microscopic method (reference value: 3.73 +/- 3.1%); assay type: functional
DLD-1 [4] = assay: Induction of vascular shutdown in human DLD1 cells xenografted in Balb/C immunodeficient nude mouse assessed as vascular element counts at 400 mg/kg, iv at 4 hrs post dose by […] dye-based microscopic method (reference value: 3.73 +/- 3.1%); assay type: functional
Mus musculus [5] = assay: Toxicity in human DLD1 cells xenografted Balb/C immunodeficient nude mouse assessed as body weight loss at 200 to 400 mg/kg, iv administered day 2 and 4 measured 14 days post dose; assay type: organism-based; settings: in vivo, 336 h
DLD-1 [6] = assay: Vascular disrupting activity in human DLD1 cells xenografted in Balb/C immunodeficient nude mouse assessed as induction of necrosis by measuring necrotic area at 400 mg/kg, iv at 1 hr post dose by haematoxylin and eosin staining-based assay (reference value: 19 +/- 9.6%); assay type: functional
DLD-1 [7] = assay: Induction of vascular shutdown in human DLD1 cells xenografted in Balb/C immunodeficient nude mouse at 400 mg/kg, iv by […] dye-based microscopic method; assay type: functional, organism-based; settings: TDE = time-dependent effect
DLD-1 [8] = assay: Induction of vascular shutdown in human DLD1 cells xenografted in Balb/C immunodeficient nude mouse assessed as vascular element counts at 400 mg/kg, iv at 24 hrs post dose by […] dye-based microscopic method (reference value: 3.73 +/- 3.1%); assay type: functional
Calu-6 [9] = assay: Antitumor activity against human Calu6 cells xenografted in nu/nu CBA mouse assessed as tumor growth inhibition at 67.5 to 135 mg/kg, ip administered on day 1 and 5 measured on day 2 and 6 post dose; assay type: functional, organism-based
Mus musculus [10] = assay: Toxicity in human Calu6 cells xenografted nu/nu CBA mouse assessed as change in body weight at 67.5 to 135 mg/kg, ip administered on day 1 and 5 measured daily over 12 days; assay type: organism-based; settings: in vivo, 288 h
Calu-6 [11] = assay: Antitumor activity against human Calu6 cells xenografted in nu/nu CBA mouse assessed as tumor growth inhibition at 67.5 to 135 mg/kg, ip administered on day 1 and 5 measured on day 3 to 4 and day 7 to 16 post dose; assay type: functional, organism-based

| SMILES | GI50 (KM12) | GI50 (MDA-MB-231) | GI50 (TK-10) | GI50 (HCT-15) | GI50 (NCI/ADR-RES) | GI50 (DU-145) | GI50 (NCI-H522) | GI50 (HOP-92) | GI50 (RPMI-8226) | GI50 (CAKI-1) | GI50 (NCI-H23) | GI50 (EKVX) | GI50 (Malme-3M) | further results |
| --- | --- | --- | --- | --- | --- | --- | --- | --- | --- | --- | --- | --- | --- | --- |
| COc1ccc2c(c1)COCc1cc(OC)c(OC)c(OC)c1-2 | 50 nM | 590 nM | > 100000 nM | 80 nM | 70 nM | 180 nM | 280 nM | > 100000 nM | 330 nM | 30200 nM | 440 nM | 600 nM | > 100000 nM |  |
| COc1ccc2c(c1OP(=O)([O-])[O-])COCc1cc(OC)c(OC)c(OC)c1-2.[Na+].[Na+] | 300 nM | 710 nM |  | 440 nM | 280 nM | 390 nM | 300 nM |  | 460 nM | 790 nM | 710 nM | 680 nM | 2510 nM | Activity (DLD-1 [1]): 26%; Activity (DLD-1 [2]): 74.1%; Activity (DLD-1 [3]): 0.33%; Activity (DLD-1 [4]): 1.96%; Activity (Mus musculus [5]): Non-Toxic; Activity (DLD-1 [6]): 27.1%; Activity (DLD-1 [7]): Tde; Activity (DLD-1 [8]): 0.95% |
| COc1ccc2c(c1O)COCc1cc(OC)c(OC)c(OC)c1-2 | 50 nM | 270 nM | > 100000 nM | 80 nM | 50 nM | 60 nM | 40 nM | 590 nM | 320 nM | 830 nM | 760 nM |  |  | TGI (Calu-6 [9]): Active; Activity (Mus musculus [10]): Non-Toxic; TGI (Calu-6 [11]): inactive |
